A word on the IC50: it is the point on the concentration scale where inhibition reaches its midpoint.

Each structure is given as a SMILES string.

T1 sequence (P28845 whole entry): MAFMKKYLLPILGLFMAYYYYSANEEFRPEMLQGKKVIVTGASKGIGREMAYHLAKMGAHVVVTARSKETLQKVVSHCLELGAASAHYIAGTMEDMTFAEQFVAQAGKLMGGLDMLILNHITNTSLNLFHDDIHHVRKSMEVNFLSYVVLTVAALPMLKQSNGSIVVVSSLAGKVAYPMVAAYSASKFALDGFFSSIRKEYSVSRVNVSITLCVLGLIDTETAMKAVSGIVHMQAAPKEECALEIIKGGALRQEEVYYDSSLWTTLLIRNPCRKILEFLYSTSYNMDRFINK

Tested on in one data set: not given
Experiment: not given
Particulars: phase IIa, 28-days, placebo-controlled, two-step hyperinsulinemic clamp studies; cited from earlier work.
Regarding `CNC(=O)c1ccc(-c2ccc(C3(C(=O)N4CC[C@@]5(C4)OC(=O)c4ccccc45)CC3)cc2)cn1` [INCB13739], the safety and tolerability entry is “safe and well tolerated”.

A further data set addresses T1, human full length HSD11β1 (Homo sapiens, UniProt P28845).
T1 construct: transient expression of human full length HSD11β1 expression vector; host or cells: CHO cells, transient transfection
Briefly: In Vitro HSD11β1 Inhibition Assay. Particulars: CHO cells transiently expressing human HSD11β1; 200 nM cortisone+500 uM NADPH overnight; cortisone to cortisol by LC/MS-MS; read-out: 11βHSD1 (IC50). The format is cell-based. In short, it runs like this:
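Whole-cell assay in CHO cells transiently transfected with full-length human HSD11β1, re-seeded 24 h after transfection. Cells incubated overnight with 200 nM cortisone plus 500 uM NADPH, with or without inhibitor. Cortisone-to-cortisol conversion measured by LC/MS-MS; IC50 (nM) from an 8-point log concentration-inhibition curve.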
For `CCC(CC(=O)N1C2CC3CC1CC(O)(C3)C2)c1c[nH]c2ccccc12` (stereo not drawn) [Example 64, 1-(5-hydroxy-2-azatricyclo[3.3.1.1^3,7]dec-2-yl)-3-(1H-indol-3-yl)pentan-1-one], the IC50 fell in the range of 100 to 150 nM.

Consider `CC(CC(=O)N1C2CC3CC1CC(C(=O)Nc1ccc(F)cc1)(C3)C2)c1c[nH]c2cccc(Cl)c12` (stereo not drawn) [Example 45, 2-[3-(4-chloro-1H-indol-3-yl)butanoyl]-N-(4-fluorophenyl)-2-azatricyclo[3.3.1.1^3,7]decane-5-carboxamide], for which the IC50 is above 250 nM.

On to `COc1ccc2[nH]cc(C(C)CC(=O)N3C4CC5CC(C4)CC3C5)c2c1` (stereo not drawn) [Compound 226, 1-(2-azaadamantan-2-yl)-3-(5-methoxy-1H-indol-3-yl)butan-1-one], for which the concentration for half-maximal inhibition (IC50) is below 100 nM.

Take `Cc1ccc2[nH]cc(C(C)CC(=O)N3C4CC5CC3CC(C#N)(C5)C4)c2c1C` (stereo not drawn) [Compound 221, 2-(3-(4,5-dimethyl-1H-indol-3-yl)butanoyl)-2-azaadamantane-5-carbonitrile]: the IC50 was above 250 nM.

With `COc1ccc2[nH]cc(C(C)CC(=O)N3C4CC5CC3CC(O)(C5)C4)c2c1C1CC1` (stereo not drawn) [Compound 171, 3-(4-cyclopropyl-5-methoxy-1H-indol-3-yl)-1-(5-hydroxy-2-azatricyclo[3.3.1.1^3,7]dec-2-yl)butan-1-one], the IC50 fell in the range of 200 to 250 nM.

In the case of `Cc1cccc2[nH]cc(C(C)CC(=O)N3C4CC5CC3CC(F)(C5)C4)c12` (stereo not drawn) [Compound 104, 1-(5-fluoro-2-azatricyclo[3.3.1.1^3,7]dec-2-yl)-3-(4-methyl-1H-indol-3-yl)butan-1-one], the IC50 is below 100 nM.

Turning to `CC(CC(=O)N1C2CC3CC1CC(O)(C3)C2)c1c[nH]c2cccc(C3CC3)c12` (single isomer, unassigned) [Compound 102, 3-(4-cyclopropyl-1H-indol-3-yl)-1-(5-hydroxy-2-azatricyclo[3.3.1.1^3,7]dec-2-yl)butan-1-one], the IC50 is below 100 nM.

With `Cc1cccc2[nH]cc(C(C)CC(=O)N3C4CC5CC3CC(C(=O)O)(C5)C4)c12` (stereo not drawn) [Example 57, 2-[3-(4-methyl-1H-indol-3-yl)butanoyl]-2-azatricyclo[3.3.1.1^3,7]decane-5-carboxylic acid], the IC50 is above 250 nM.

These data come from US9303016B2, “Derivatives of aza adamantane and uses thereof” (CONNEXIOS LIFE SCIENCES PVT. LTD., priority 2011, dated 2016).
